Assay results taken from ChEMBL document CHEMBL4811277, “Glycyrrhetinic acid derivatives as Zika virus inhibitors: Synthesis and antiviral activity in vitro” (Bioorg Med Chem, 2021).
Activity calls are given as the source filed them. The rule behind the calls is not given here.

Experiments:
Zika virus [1] = assay: Antiviral activity against Zika virus infected in human SF-268 cells assessed as inhibition of virus-induced cytopathic effect at 10 uM measured at 96 hrs MTT assay; assay type: functional
Zika virus [2] = assay: Antiviral activity against Zika virus infected in human SF-268 cells assessed as reduction in viral NS1 protein synthesis at 10 uM measured at 96 hrs by immunofluorescence assay relative to control; assay type: functional
[3] = Cytotoxicity against human SF-268 cells assessed as inhibition of cell viability measured after 96 hrs by MTT assay; assay type: cell-based
Zika virus [4] = assay: Antiviral activity against Zika virus infected in human SF-268 cells assessed as reduction in viral infection by DAPI staining based immunofluorescence assay; assay type: functional, organism-based
[5] = Therapeutic index, ratio of CC50 for cytotoxicity against human SF-268 cells to IC50 for antiviral activity against Zika virus infected in human SF-268 cells; assay type: toxicity, cell-based; settings: read-out: TI
Zika virus [6] = assay: Antiviral activity against Zika virus infected in SF-268 cells assessed as inhibition of viral infection at entry stage measured after 96 hrs by DAPI staining based fluorescence microscopic analysis; assay type: functional, organism-based; settings: SF-268, 96 h
Zika virus [7] = assay: Antiviral activity against Zika virus infected in SF-268 cells assessed as inhibition of viral infection at post entry stage after 96 hrs measured after 1 hr post infection by DAPI staining based fluorescence microscopic analysis; assay type: functional, organism-based

For COC(=O)[C@@]1(C)CC[C@]2(C)CC[C@]3(C)C(=CC(=O)C4[C@@]5(C)CC/C(=N\NC(N)=O)C(C)(C)C5CC[C@]43C)[C@@H]2C1 (some centres not stated), which inhibition at 10 µM (Zika virus [1]) is on record?
The inhibition at 10 µM was 63%.

And the INH (Zika virus [2])?
The INH was 66.6%.

Which inhibition at 10 µM (Zika virus [1]) does the source give for CCCCOC(=O)[C@@]1(C)CC[C@]2(C)CC[C@]3(C)C(=CC(=O)C4[C@@]5(C)CC/C(=N\NC(N)=O)C(C)(C)C5CC[C@]43C)[C@@H]2C1 (some centres not stated) here?
The inhibition at 10 µM was greater than 70%.

What about the INH (Zika virus [2]) of the same compound?
The INH was 82.8%.

What about the CC50 at 96 h [3] of the same compound?
Its CC50 at 96 h is greater than 50000 nM.

And the IC50 (Zika virus [4])?
The IC50 was 550 nM.

What about the selectivity ratio [5] of the same compound?
Its selectivity ratio is greater than 90.9.

And the IC50 (Zika virus [6])?
The IC50 was 1090 nM.

And the IC50 (Zika virus [7])?
Its IC50 is 450 nM.

For COC(=O)[C@]1(C)C=C2C3=CC(=O)C4[C@@]5(C)CC/C(=N\NC(N)=O)C(C)(C)C5CC[C@@]4(C)[C@]3(C)CC[C@@]2(C)CC1 (some centres not stated), which inhibition at 10 µM (Zika virus [1]) is on record?
The inhibition at 10 µM was 63%.

And the INH (Zika virus [2])?
The INH was 62.6%.

For CC(=O)O[C@H]1CC[C@@]2(C)C(CC[C@]3(C)C2C(=O)C=C2C4C[C@@](C)(C(=O)Nc5cnc6ccccc6c5)CC[C@]4(C)CC[C@]23C)C1(C)C (some centres not stated), which inhibition (Zika virus [1]) is on record?
Its inhibition is “Active”.

And the INH (Zika virus [2])?
The INH was 26.5%.

With COC(=O)[C@@]1(C)CC[C@]2(C)CC[C@]3(C)C(=CCC4[C@@]5(C)Cc6snnc6C(C)(C)C5CC[C@]43C)C2C1 (some centres not stated) as the compound, how does the inhibition (Zika virus [1]) read?
Its inhibition is “Active”.

What about the INH (Zika virus [2]) of the same compound?
The INH was 55.4%.

Which inhibition (Zika virus [1]) does the source give for COC(=O)[C@@]1(C)CC[C@]2(C)CC[C@]3(C)C(=CCC4[C@@]5(C)CC/C(=N\NC(N)=O)C(C)(C)C5CC[C@]43C)C2C1 (some centres not stated) here?
Its inhibition is “Active”.

What about the INH (Zika virus [2]) of the same compound?
Its INH is 49.9%.

Which inhibition at 10 µM (Zika virus [1]) does the source give for CCCCOC(=O)[C@@]1(C)CC[C@]2(C)CC[C@]3(C)C(=CC(=O)C4[C@@]5(C)Cc6snnc6C(C)(C)C5CC[C@]43C)[C@@H]2C1 (some centres not stated) here?
The inhibition at 10 µM was greater than 70%.

What about the INH (Zika virus [2]) of the same compound?
The INH was 82.1%.

And the CC50 at 96 h [3]?
The CC50 at 96 h was greater than 50000 nM.

What about the IC50 (Zika virus [4]) of the same compound?
The IC50 was 560 nM.

And the selectivity ratio [5]?
The selectivity ratio was greater than 89.3.

What about the IC50 (Zika virus [6]) of the same compound?
Its IC50 is 500 nM.

What about the IC50 (Zika virus [7]) of the same compound?
The IC50 was 430 nM.

Which results are given for COC(=O)[C@@]1(C)CC[C@]2(C)CC[C@]3(C)C(=CCC4[C@@]5(C)CC/C(=N\NC(N)=S)C(C)(C)C5CC[C@]43C)C2C1 (some centres not stated)?
inhibition (Zika virus [1]): Active; INH (Zika virus [2]): 49.5%

What does the source list for COC(=O)[C@@]1(C)CC[C@]2(C)CC[C@]3(C)C(=CC(=O)C4[C@@]5(C)Cc6snnc6C(C)(C)C5CC[C@]43C)[C@@H]2C1 (some centres not stated)?
inhibition at 10 µM (Zika virus [1]): > 70%; INH (Zika virus [2]): 74.9%; CC50 at 96 h [3]: > 50000 nM; IC50 (Zika virus [4]): 290 nM; selectivity ratio [5]: > 172; IC50 (Zika virus [6]): 620 nM; IC50 (Zika virus [7]): 1940 nM

For CC(=O)O[C@H]1CC[C@@]2(C)C(CC[C@]3(C)C2C(=O)C=C2C4C[C@@](C)(C(=O)Nc5cccnc5)CC[C@]4(C)CC[C@]23C)C1(C)C (some centres not stated), which inhibition at 10 µM (Zika virus [1]) is on record?
Its inhibition at 10 µM is greater than 70%.

And the INH (Zika virus [2])?
The INH was 76.3%.

What about the CC50 at 96 h [3] of the same compound?
Its CC50 at 96 h is greater than 50000 nM.

And the IC50 (Zika virus [4])?
Its IC50 is 130 nM.

And the selectivity ratio [5]?
The selectivity ratio was greater than 384.

And the IC50 (Zika virus [6])?
The IC50 was 680 nM.

And the IC50 (Zika virus [7])?
The IC50 was 1000 nM.

For CC(=O)O[C@H]1CC[C@@]2(C)C(CC[C@]3(C)C2C(=O)C=C2C4C[C@@](C)(C(=O)Nc5nc(-c6ccccc6)cs5)CC[C@]4(C)CC[C@]23C)C1(C)C (some centres not stated), which inhibition (Zika virus [1]) is on record?
The inhibition was “Active”.

What about the INH (Zika virus [2]) of the same compound?
Its INH is 52.3%.
